From patent US4341895A (priority 1981, dated 1982)

Tests used:
[1] = in vivo; cited from earlier work
[2] = Tail Flick (analgesic agonist activity); format: in vivo; settings: sc; rat, as free base; tested as p-toluenesulfonate salt
[3] = tested on: phenazocine; assay: Antagonist activity vs. phenazocine; format: in vivo; settings: rat, s.c., as free base; doses in parentheses; tested as p-toluenesulfonate salt
[4] = Straub Tail observation; format: in vivo; settings: mouse, s.c.; for locomotor activity (footnote i to Straub Tail): at 75 mg/kg (R = C2 H5 COO) or 30 & 60 mg/kg (R = C2 H5 CO)
Source text: (§1) The compounds of formula I and their acid-addition salts are useful as analgesic agents, as determined by standard tests performed on the compounds of formula I where R is ethoxycarbonyl and propionyl in the form of their p-toluenesulfonate salts.
(§2) ^a All activities are expressed in mg/kg s.c., free base.

[5] = tested on: ACh; assay: ACh (acetylcholine) analgesic test, procedure of Collier et al.; format: in vivo; settings: sc; mouse, as free base; range in parentheses; tested as p-toluenesulfonate salt
Source text: as §1, §2
^e Procedure (in mouse) of H.O.J. Collier, L. C. Dineen, C. A. Johnso
and C. Schneider, Br. J. Pharmacol. Chemother. 32, 295 (1968).

[6] = tested on: Bradykinin; assay: Bradykinin analgesic test; format: in vivo; settings: rat
Source text: as §1, §2
^f G. Deffenu, L. Pegrassi and B. Lumachi, J. Pharm. Pharmacol. 18,
135 (1966); B. A. Berkowitz and E. L. Way, J. Pharmacol. Exp. Ther. 177,

SMILES	analgesic activity [1]	ED50 [2]	Antagonist activity vs. phenazocine [3]	locomotor activity (footnote i to Straub Tail) [4]	ED50 [5]	depression (footnote h to Bradykinin ED50) ([6]; 10 mg/kg s.c.)	depression (footnote h to Bradykinin ED50) ([6]; 20 and 30 mg/kg s.c.)	ED50 ([6]; sc, as free base, range in parentheses, tested as p-toluenesulfonate salt)	Straub Tail (dose) ([4]; as free base, tested as p-toluenesulfonate salt)
CN1[C@@H]2CC[C@H]1CC(C(=O)O)(c1ccccc1)C2 (stereo partly shown) [3-phenyl-3-carboxytropane]	reported to have analgesic activity								
CCC(=O)N1[C@@H]2CC[C@H]1[C@H](O)[C@@H](NCc1ccccc1)C2 (relative stereo) [I (R = C2 H5 CO), 3α-Benzylamino-8-propionyl-1αH,5αH-nortropan-2β-ol]		44 ± 3.5 mg/kg	inactive (10)	Increased locomotor activity	16 mg/kg				
CCOC(=O)N1[C@@H]2CC[C@H]1[C@H](O)[C@@H](NCc1ccccc1)C2 (relative stereo) [I (R = C2 H5 COO), Ethyl 3α-benzylamino-2β-hydroxy-1αH,5αH-nortropane-8-carboxylate]		56 ± 4 mg/kg	inactive (10 & 80)	Increased locomotor activity	6.9 mg/kg	Mild depression	depression	21 mg/kg	75 mg/kg
